Activity calls are given as the source filed them. How the calls were made is not given here.
Test system: rodent lifetime carcinogenesis bioassay, tumor incidence TD50
Assay: chronic cancer bioassays in animals – CPDB, compiled studies (AID 1745844)

**Q.** Which TD50 (mouse, strain B6C3F1, females, by gavage, site: adrenal medulla + liver, lesion: pheochromocytoma, benign + hepatocellular adenoma + hepatocellular carcinoma, dosed 104 weeks, study length 105 weeks) does the source give for `c1ccoc1` here?
**A.** The TD50 was 2.26 mg/kg/day.

**Q.** What about the TD50 (mouse, strain B6C3F1, females, by gavage, site: adrenal medulla, lesion: pheochromocytoma, benign, dosed 104 weeks, study length 105 weeks) of the same molecule?
**A.** The TD50 was 36 mg/kg/day.

**Q.** What about the TD50 (mouse, strain B6C3F1, females, by gavage, site: any site (literature study), lesion: several types, types named in the paper, dosed 104 weeks, study length 105 weeks) of the same molecule?
**A.** Its TD50 is 2.81 mg/kg/day.

**Q.** What about the TD50 (mouse, strain B6C3F1, females, by gavage, site: forestomach, lesion: squamous-cell papilloma, dosed 104 weeks, study length 105 weeks) of the same molecule?
**A.** The TD50 was 23.8 mg/kg/day.

**Q.** And the TD50 (mouse, strain B6C3F1, females, by gavage, site: liver, lesion: carcinoma + hepatocellular carcinoma, dosed 104 weeks, study length 105 weeks)?
**A.** The TD50 was 6.85 mg/kg/day.

**Q.** And the TD50 (mouse, strain B6C3F1, females, by gavage, site: liver, lesion: hepatocellular adenoma + hepatocellular carcinoma + neoplastic nodule, dosed 104 weeks, study length 105 weeks)?
**A.** Its TD50 is 2.19 mg/kg/day.

**Q.** What about the TD50 (mouse, strain B6C3F1, females, by gavage, site: liver, lesion: hepatocellular adenoma + hepatocellular carcinoma, dosed 104 weeks, study length 105 weeks) of the same molecule?
**A.** The TD50 was 2.19 mg/kg/day.

**Q.** What about the TD50 (mouse, strain B6C3F1, females, by gavage, site: liver, lesion: hepatocellular adenoma, dosed 104 weeks, study length 105 weeks) of the same molecule?
**A.** The TD50 was 2.26 mg/kg/day.

**Q.** What about the TD50 (mouse, strain B6C3F1, females, by gavage, site: lung, lesion: alveolar/bronchiolar adenoma + alveolar/bronchiolar carcinoma, dosed 104 weeks, study length 105 weeks) of the same molecule?
**A.** The TD50 was 38.5 mg/kg/day.

**Q.** And the TD50 (mouse, strain B6C3F1, males, by gavage, site: adrenal medulla + liver, lesion: pheochromocytoma, benign + hepatocellular adenoma + hepatocellular carcinoma, dosed 104 weeks, study length 105 weeks)?
**A.** Its TD50 is 3.6 mg/kg/day.

**Q.** What about the TD50 (mouse, strain B6C3F1, males, by gavage, site: adrenal medulla, lesion: pheochromocytoma, benign, dosed 104 weeks, study length 105 weeks) of the same molecule?
**A.** Its TD50 is 20.1 mg/kg/day.

**Q.** And the TD50 (mouse, strain B6C3F1, males, by gavage, site: any site (literature study), lesion: several types, types named in the paper, dosed 104 weeks, study length 105 weeks)?
**A.** The TD50 was 5.43 mg/kg/day.

**Q.** What about the TD50 (mouse, strain B6C3F1, males, by gavage, site: forestomach, lesion: squamous-cell papilloma, dosed 104 weeks, study length 105 weeks) of the same molecule?
**A.** Its TD50 is 64.6 mg/kg/day.

**Q.** And the TD50 (mouse, strain B6C3F1, males, by gavage, site: liver, lesion: hepatocellular adenoma + hepatocellular carcinoma + neoplastic nodule, dosed 104 weeks, study length 105 weeks)?
**A.** The TD50 was 3.6 mg/kg/day.

**Q.** And the TD50 (mouse, strain B6C3F1, males, by gavage, site: liver, lesion: hepatocellular adenoma + hepatocellular carcinoma, dosed 104 weeks, study length 105 weeks)?
**A.** The TD50 was 3.6 mg/kg/day.

**Q.** What about the TD50 (mouse, strain B6C3F1, males, by gavage, site: liver, lesion: hepatocellular adenoma, dosed 104 weeks, study length 105 weeks) of the same molecule?
**A.** The TD50 was 4.02 mg/kg/day.

**Q.** And the TD50 (mouse, strain B6C3F1, males, by gavage, site: liver, lesion: hepatocellular carcinoma, dosed 104 weeks, study length 105 weeks)?
**A.** The TD50 was 5.13 mg/kg/day.

**Q.** And the TD50 (mouse, strain B6C3F1, males, by gavage, site: lung, lesion: alveolar/bronchiolar adenoma + alveolar/bronchiolar carcinoma, dosed 104 weeks, study length 105 weeks)?
**A.** Its TD50 is 21.5 mg/kg/day.

**Q.** And the TD50 (mouse, strain B6C3F1, males, by gavage, site: lung, lesion: alveolar/bronchiolar adenoma, dosed 104 weeks, study length 105 weeks)?
**A.** Its TD50 is 18.2 mg/kg/day.

**Q.** And the TD50 (mouse, strain B6C3F1, males, by gavage, site: multiple organs, lesion: malignant lymphoma, histiocytic type + malignant lymphoma, mixed type, dosed 104 weeks, study length 105 weeks)?
**A.** Its TD50 is 11 mg/kg/day.

**Q.** And the TD50 (rat, strain Fischer 344, females, by gavage, site: any site (literature study), lesion: several types, types named in the paper, dosed 103 weeks, study length 104 weeks)?
**A.** The TD50 was 2.83 mg/kg/day.

**Q.** What about the TD50 (rat, strain Fischer 344, females, by gavage, site: liver + multiple organs, lesion: cholangiocarcinoma + hepatocellular adenoma + hepatocellular carcinoma + mononuclear-cell leukemia, dosed 103 weeks, study length 104 weeks) of the same molecule?
**A.** The TD50 was 0.543 mg/kg/day.

**Q.** What about the TD50 (rat, strain Fischer 344, females, by gavage, site: liver, lesion: cholangiocarcinoma, dosed 103 weeks, study length 104 weeks) of the same molecule?
**A.** Its TD50 is 0.395 mg/kg/day.

**Q.** And the TD50 (rat, strain Fischer 344, females, by gavage, site: liver, lesion: hepatocellular adenoma + hepatocellular carcinoma + neoplastic nodule, dosed 103 weeks, study length 104 weeks)?
**A.** Its TD50 is 11.2 mg/kg/day.

**Q.** What about the TD50 (rat, strain Fischer 344, females, by gavage, site: liver, lesion: hepatocellular adenoma + hepatocellular carcinoma, dosed 103 weeks, study length 104 weeks) of the same molecule?
**A.** The TD50 was 11.2 mg/kg/day.

**Q.** And the TD50 (rat, strain Fischer 344, females, by gavage, site: liver, lesion: hepatocellular adenoma, dosed 103 weeks, study length 104 weeks)?
**A.** Its TD50 is 11.8 mg/kg/day.

**Q.** And the TD50 (rat, strain Fischer 344, females, by gavage, site: multiple organs, lesion: mononuclear-cell leukemia, dosed 103 weeks, study length 104 weeks)?
**A.** The TD50 was 5.84 mg/kg/day.

**Q.** And the TD50 (rat, strain Fischer 344, females, by gavage, site: urinary bladder, lesion: transitional-cell papilloma, dosed 103 weeks, study length 104 weeks)?
**A.** Its TD50 is 50.7 mg/kg/day.

**Q.** What about the TD50 (rat, strain Fischer 344, males, by gavage, site: adrenal medulla, lesion: pheochromocytoma, benign, dosed 103 weeks, study length 104 weeks) of the same molecule?
**A.** The TD50 was 12.7 mg/kg/day.

**Q.** And the TD50 (rat, strain Fischer 344, males, by gavage, site: any site (literature study), lesion: several types, types named in the paper, dosed 103 weeks, study length 104 weeks)?
**A.** Its TD50 is 1.96 mg/kg/day.

**Q.** And the TD50 (rat, strain Fischer 344, males, by gavage, site: liver + multiple organs, lesion: cholangiocarcinoma + hepatocellular adenoma + hepatocellular carcinoma + mononuclear-cell leukemia, dosed 103 weeks, study length 104 weeks)?
**A.** The TD50 was 0.529 mg/kg/day.

**Q.** What about the TD50 (rat, strain Fischer 344, males, by gavage, site: liver, lesion: cholangiocarcinoma, dosed 103 weeks, study length 104 weeks) of the same molecule?
**A.** The TD50 was 0.398 mg/kg/day.

**Q.** What about the TD50 (rat, strain Fischer 344, males, by gavage, site: liver, lesion: hepatocellular adenoma + hepatocellular carcinoma + neoplastic nodule, dosed 103 weeks, study length 104 weeks) of the same molecule?
**A.** Its TD50 is 2.31 mg/kg/day.

**Q.** And the TD50 (rat, strain Fischer 344, males, by gavage, site: liver, lesion: hepatocellular adenoma + hepatocellular carcinoma, dosed 103 weeks, study length 104 weeks)?
**A.** Its TD50 is 2.31 mg/kg/day.

**Q.** And the TD50 (rat, strain Fischer 344, males, by gavage, site: liver, lesion: hepatocellular adenoma, dosed 103 weeks, study length 104 weeks)?
**A.** Its TD50 is 3.1 mg/kg/day.

**Q.** And the TD50 (rat, strain Fischer 344, males, by gavage, site: liver, lesion: hepatocellular carcinoma, dosed 103 weeks, study length 104 weeks)?
**A.** Its TD50 is 6.18 mg/kg/day.

**Q.** And the TD50 (rat, strain Fischer 344, males, by gavage, site: multiple organs, lesion: mononuclear-cell leukemia, dosed 103 weeks, study length 104 weeks)?
**A.** Its TD50 is 4.64 mg/kg/day.

**Q.** And the TD50 (rat, strain Fischer 344, males, by gavage, site: preputial gland, lesion: adenoma + adenoma, bilateral, dosed 103 weeks, study length 104 weeks)?
**A.** Its TD50 is 21.5 mg/kg/day.

**Q.** What about the TD50 (rat, strain Fischer 344, males, by gavage, site: skin, lesion: keratoacanthoma, dosed 103 weeks, study length 104 weeks) of the same molecule?
**A.** The TD50 was 16.4 mg/kg/day.

**Q.** And the TD50 (rat, strain Fischer 344, males, by gavage, site: subcutaneous tissue, lesion: fibroma, dosed 103 weeks, study length 104 weeks)?
**A.** The TD50 was 18.1 mg/kg/day.

**Q.** What about the TD50 (rat, strain Fischer 344, males, by gavage, site: testis, lesion: interstitial-cell adenoma, dosed 103 weeks, study length 104 weeks) of the same molecule?
**A.** Its TD50 is 3.14 mg/kg/day.

**Q.** With `Cc1ccc2ncccc2c1` as the molecule, how does the TD50 (rat, strain Fischer 344, females, in feed, site: liver, lesion: hyperplastic nodule, dosed 104 weeks, study length 104 weeks) read?
**A.** The TD50 was 230 mg/kg/day (inactive).

**Q.** And the TD50 (rat, strain Fischer 344, males, in feed, site: liver, lesion: hyperplastic nodule, dosed 104 weeks, study length 104 weeks)?
**A.** Its TD50 is 123 mg/kg/day (inactive).

— PubChem BioAssay AID1745844 (Carcinogenic Potency Database (CPDB), 2022)
